Patent publication US5563151A, “Amino acid derivatives as paf-receptor antagonists” (British Biotech Pharmaceuticals limited, priority 1992, dated 1996)

Legend:
[1] = molecular target: T1, PAF receptor (human platelet plasma membrane) (Homo sapiens, UniProt P25105); assay: Inhibition of [^3 H]-PAF Receptor Binding; details: human platelet plasma membranes; [^3 H]-PAF 0.5 nM; 0° C., 1 hour, pH 7.0
T1 construct: Platelet concentrates were obtained from a hospital blood bank; from tissue; host or cells: human platelets (hospital blood bank concentrates), lysed platelet membranes
Procedure: (§1) Compounds of general formula I inhibit PAF-induced functions in both the cellular and tissue levels by changing the PAF binding to its specific receptor site. The ability of compounds of general formula I to inhibit the binding of PAF to its specific receptor binding site on human platelet plasma membranes was measured according to Example 150. The ability of compounds of general formula I to reverse the hypotension caused by an infusion of PAF in rats was measured according Example 151.
Inhibition of [^3 H]-PAF Receptor Binding
The inhibition of [^3 H]-PAF binding to human platelet plasma membrane by compounds of general formula I was determined by isotopic labelling and filtration techniques. Platelet concentrates were obtained from a hospital blood bank. These platelet concentrates (500-2500 ml.) were centrifuged at 800 rpm for 10 minutes in a SORVALL RC3B centrifuge to remove the red blood cells present. (The word SORVALL is a trade mark.) The supernatant was subsequently centrifuged at 3,000 rpm in a SORVALL RC3B centrifuge to pellet the platelets present. The platelet rich pellets were resuspended in a minimum volume of buffer (150 mM NaCl, 10 mM Tris, 2 mM EDTA, pH 7.5) and layered onto Ficoll-Paque gradients, 9 ml platelet concentrate to 2 ml Ficoll, and centrifuged at 1,900 rpm for 15 minutes in a SORVALL RT6000 centrifuge. This step removes the residual red blood cells and other nonspecific material such as lymphocytes from the preparation. The platelets which form a band between the plasma and the Ficoll were removed, resuspended in the above buffer and centrifuged at 3,000 rpm for 10 minutes in a SORVALL RT6000 centrifuge. […]
The assay was conducted by preparing a series of Tris-buffered solutions of the selected antagonist of predetermined concentrations. […] Each washed residue was dried under vacuum on a sampling manifold and placed into vials containing 20 ml of OPTIPHASE MP scintillation fluid and the radioactivity counted in a liquid scintillation counter. […]

[2] = system: PAF-induced hypotension; assay: Inhibition of PAF-Induced Hypotension in the Rat; assay type: in vivo, rat (male Sprague-Dawley); details: iv, i.v. bolus, PAF 100 ng/kg/min i.v. infusion, anaesthetised rats, read-out: ED50 (dose to cause a 50% reversal of the hypotensive PAF response)
Procedure: as §1
Inhibition of PAF-Induced Hypotension in the Rat
Male Sprague-Dawley rats (300-350 g) were anaesthetised with a mixture of sodium pentobarbitone, 22.5 mg/kg and thiopental 62.5 mg/kg. Through a midline incision in the neck, the trachea was cannulated and the animals breathed spontaneously. A carotid artery was cannulated for the measurement of blood pressure and this signal was used to trigger a rate meter to measure heart rate. Both jugular veins were cannulated: one for the infusion of PAF and the other for the bolus administration of test compounds.
PAF, 100 ng/kg/min was infused i.v. until a sustained fall in mean blood pressure of 50 mmHg was achieved. […] The peak of this reversal was measured and the dose to cause a 50% reversal of the hypotensive PAF response (ED50) calculated by straight line interpolation and the results are presented in Table 2.

T1 sequence (P25105 whole entry): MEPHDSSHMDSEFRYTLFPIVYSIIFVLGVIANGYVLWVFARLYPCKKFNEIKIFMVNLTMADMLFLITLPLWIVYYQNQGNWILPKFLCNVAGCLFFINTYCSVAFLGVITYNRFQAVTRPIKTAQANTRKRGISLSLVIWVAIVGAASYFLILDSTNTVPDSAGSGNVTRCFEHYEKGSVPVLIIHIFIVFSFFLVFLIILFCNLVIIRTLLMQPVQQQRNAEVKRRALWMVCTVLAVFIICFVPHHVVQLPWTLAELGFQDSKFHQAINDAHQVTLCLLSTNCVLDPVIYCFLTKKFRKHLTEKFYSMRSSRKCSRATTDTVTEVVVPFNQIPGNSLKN

Row | SMILES | IC50 [1] [nM] | ED50 [2] [mg/kg]
1 | CCOC(=O)[C@H](CC(C)C)NC(=O)CCCCCn1c(C)nc2cnccc21 [Example 1B, N-6-(2-methylimidazo[4,5-c]pyridin-1-yl)hexanoyl-L-leucine ethyl ester] | 15 | 
2 | CCOC(=O)[C@H](CC(C)C)NC(=O)CCCn1c(C)nc2cnccc21 [Example 11B, N-4-(2-methylimidazo[4,5-c]pyridin-1-yl)butanoyl-L-leucine ethyl ester] | 3 | 0.0305
3 | CCOC[C@H](CC(C)C)NS(=O)(=O)CCCn1c(C)nc2cnccc21 [Example 33B, N-4-(2-methylimidazo[4,5-c]pyridin-1-yl)propylsulphonyl-L-leucinyl ethyl ether] |  | 0.0018
4 | CCOC(=O)[C@H](CC(C)C)NC(=O)CCCCCCCCCCn1c(C)nc2cnccc21 [Example 98B, N-11-(2-methylimidazo[4,5-c]pyridin-1-yl)undecanoyl-L-leucine ethyl ester] | 1 | 
